Test results published in patent US5635495A, “Pyrimidine bisphosphonate esters and (alkoxymethylphosphinyl)alkyl phosphonic acids as anti-inflammatories” (The Upjohn Company, priority 1995, dated 1997).

Key:
[1] = test system: mBSA-induced DTH granuloma (DTH GRA) lesion; assay: Delayed Type Hypersensitivity Granuloma Assay (DTH GRA) model for inflammation; format: in vivo, mouse; details: for % Inhibition Dry Weight: granuloma dry weight; for % Inhibition Dry Weight / % Inhibition Wet Weight: excised after nine days; for % Inhibition Wet Weight: granuloma wet weight
Source text: Compounds of Formula 3 and a compound of Formula 2 have been tested in a Delayed Type Hypersensitivity Granuloma Assay (DTH GRA) model for inflammation. This assay is described by Dunn, C. J. et al., "Development of a delayed-type hypersensitivity granuloma model in the mouse for the study of chronic immune-mediated inflammatory disease," Agents and Actions, 27, 3/4 (1989) and "Murine Delayed-Type Hypersensitivity Granuloma," Int. J. Immunopharmc., 12, 8, 899-904 (1990).
Briefly, mBSA-sensitized mice have a DTH granuloma (DTH GRA) lesion induced by subcutaneously implanting a mBSA-soaked filter which is excised after nine days. Compounds are administered to the mice to determine their effect on the lesions. The results are recorded as percent inhibition. […] Inhibition of 10 to 20% is considered to indicate anti-granuloma activity. Greater than 30% inhibition is good activity.
The compound of Formula 2 tested was 1-((ethoxy-methylphosphinyl))-4-(3-methyl-6-phenyl-4(3H)-pyrimidinone-2-yl)-butane phosphonic acid diethyl ester, Example 16 and the DTH GRA data obtained for this compound was 44.4%.

calcium channel = assay: in vitro model which identifies calcium channel blocking activity (KCl-induced calcium influx, INDO-1, human dermal fibroblasts); format: cell-based; details: 40 mM KCl, human dermal fibroblasts CRL 1445
Method: These compounds were also tested in an in vitro model which identifies calcium channel blocking activity. In this test, adherent human dermal fibroblasts (CRL 1445, ATCC, Bethesda, Md.) were allowed to attach to glass cover slips placed in 6 well culture plates. Cultures were maintained in DMEM supplemented with antibiotics and 10% fetal bovine serum (FBS) until confluent.
The fibroblasts were washed once with Dulbecco's phosphate buffered saline to remove the culture medium and FBS. The calcium probe, INDO-1 AM ([…]) in RPMI 1640 without phenol red and supplemented with 10 mM hepes and 2 mM glutamine was added to the cells for 1 hour at 37° C. The cells were washed twice with RPMI1640 and remained in this medium until calcium measurements were obtained with the Meridian ACAS digital image microscope.
The cover slip with the attached fibroblasts was placed in a chamber with 1 ml of RPMI on the microscope stage, and maintained at 37° C. The cells were exposed to a laser beam set at 310 nm and fluorescent emission was measured at 485 nm and 405 nm. Baseline resting calcium levels of the fibroblasts were measured for 30 seconds after which 40 mM KCl was added to the medium in the holder. Data was collected at 40 second intervals for a total of 300 to 400 seconds. Maximal calcium influx is usually reached within 40 seconds after the addition of KCl, and begins to slowly decrease to ~50% of the maximal level. The intracellular calcium concentrations remain elevated for at least 400 seconds.
In order to measure the inhibitory effect of the test compounds on changes in intracellular calcium, the compound was added to the cells maintained in RPMI medium for a minimum of 20 minutes before the fibroblast membranes were depolarized with KCl as outlined above. The mean increase in intracellular calcium was then compared to control fibroblasts which had been pretreated for similar lengths of time with DMSO and exposed to KCl. A calcium standard curve was obtained on the day of the experiments in order to generate absolute intracellular calcium concentrations if needed.
Two known calcium channel blockers, D600 and nifedipine were also tested to compare the relative efficacies of the "standard" compounds with the novel diphosphonates. For instance, D600 (available from the Sigma Co., St. Louis, Mo.) inhibited calcium influx into a cell by 83 to 100% at 10^-5 molar concentration. The Control is a sub-structure of Example 9 (k) not having the bisphosphonate teralkyl ester portion.

COc1cc(C)nc(NCC(P2(=O)OCC(C)(C)CO2)P2(=O)OCC(C)(C)CO2)n1 [Ex. 26 (l), (2((4-(methyl)-6-methoxy-2-pyrimidinyl)amino)ethylidene)bis(2,2'-(5,5-dimethyl-2,2'-dioxide-1,3,2-dioxaphosphorphine))]
% Inhibition Dry Weight ([1]; 10 mg/kg PO): 44.8%
% Inhibition Wet Weight ([1]; 10 mg/kg PO): 41.9%

CCOP(=O)(OCC)C(CNc1nc(C)cc(Oc2ccc(Cl)cc2Cl)n1)P(=O)(OCC)OCC [(f), (2-((4-2,4-dichlorophenoxy-6-methyl-2-pyrimidinyl)amino)ethylidene)bisphosphonic acid tetraethyl ester]
% Inhibition Dry Weight ([1]; 10 mg/kg PO): 39.7%
% Inhibition Wet Weight ([1]; 10 mg/kg PO): 45.9%

Cc1cc(Oc2ccc(F)cc2F)nc(NCC(P2(=O)OCC(C)(C)CO2)P2(=O)OCC(C)(C)CO2)n1 [Ex. 18 (b), (2-((4-(2,4-difluorophenoxy)-6-methyl-2-pyrimidinyl)amino)ethylidene)bis(2,2'-(5,5-dimethyl-2,2'-dioxide-1,3,2-dioxaphosphorphinane))]
% Inhibition Dry Weight ([1]; 10 mg/kg PO): 58.3%
% Inhibition Wet Weight ([1]; 10 mg/kg PO): 70.6%

Cc1cc(Oc2ccc(Cl)cc2Cl)nc(N)n1 [Control, reference compound]
% Inhibition Mean SD (calcium channel activity) (calcium channel; 10^-5 M): 12%

Cc1cc(Oc2ccc(C#N)cc2)nc(NCC(P2(=O)OCC(C)(C)CO2)P2(=O)OCC(C)(C)CO2)n1 [Ex. 20 (e), (2-((4-(4-cyanophenoxy)-6-methyl-2-pyrimidinyl)amino)ethylidene)bis(2,2'-(5,5-dimethyl-2,2'-dioxide-1,3,2-dioxaphosphorphinane))]
% Inhibition Dry Weight ([1]; 10 mg/kg PO): 41.8%
% Inhibition Wet Weight ([1]; 10 mg/kg PO): 27.4%

CCOP(C)(=O)C(CCc1nc(-c2ccccc2)cc(=O)n1C)P(=O)(OCC)OCC (stereo not drawn) [Example 16, 1-(Ethoxymethylphosphinyl)-3-(3-methyl-6-phenyl14(3H)-pyrimidinone-2-yl)-propane phosphonic acid diethyl ester]
DTH GRA percent inhibition ([1]; dose, route and wet/dry weight not given): 44.4%

Cc1cc(N2CCOCC2)nc(NCC(P2(=O)OCC(C)(C)CO2)P2(=O)OCC(C)(C)CO2)n1 [Ex. 21 (c), (2-((4-(4-morpholinyl)-6-methyl-2-pyrimidinyl)amino)ethylidene)bis(2,2'-(5,5-dimethyl-2,2'-dioxide-1,3,2-dioxaphosphorphinane))]
% Inhibition Dry Weight ([1]; 10 mg/kg PO): 62.5%
% Inhibition Wet Weight ([1]; 10 mg/kg PO): 68.6%

CCOP(=O)(OCC)C(CNc1nc(C)cc(Oc2ccc(Cl)cc2Cl)n1)P(=O)(OCC)OCC [Ex. 25 (k), (2-((4-(2,4-dichlorophenoxy)-6-methyl-2-pyrimidinyl)amino)ethylidene)bisphosphonic acid, tetraethyl ester]
% Inhibition Mean SD (calcium channel activity) (calcium channel; 10^-5 M): 92 ± 5%
% Inhibition Mean SD (calcium channel activity) (calcium channel; 10^-6 M): 75 ± 9%
% Inhibition Mean SD (calcium channel activity) (calcium channel; 10^-7 M): 35 ± 19%
% Inhibition Dry Weight ([1]; 100 mg/kg, administered sc): 39.6%
% Inhibition Wet Weight ([1]; 100 mg/kg, administered sc): 40.5%

Cc1cc(Oc2ccc(Br)cc2Br)nc(NCC(P2(=O)OCC(C)(C)CO2)P2(=O)OCC(C)(C)CO2)n1 [Ex. 19 (d), (2-((4-(2-,4-dibromophenoxy)-6-methyl-2-pyrimidinyl)amino)ethylidene)bis(2,2'(5,5-dimethyl-2,2'-dioxide-1,3,2-dioxaphosphorphinane))]
% Inhibition Dry Weight ([1]; 10 mg/kg PO): 25.0%
% Inhibition Wet Weight ([1]; 10 mg/kg PO): 12.1%

Cc1cc(Oc2c(F)cccc2[N+](=O)[O-])nc(NCC(P2(=O)OCC(C)(C)CO2)P2(=O)OCC(C)(C)CO2)n1 [Ex. 17 (a), (2-((4-(2-fluoro-6-nitrophenoxy)-6-methyl-2-pyrimidinyl)amino)ethylidene)bis(2,2'-(5,5-dimethyl-2,2'-dioxide-1,3,2-dioxaphosphorphinane))]
% Inhibition Dry Weight ([1]; 10 mg/kg PO): 39.0%
% Inhibition Wet Weight ([1]; 10 mg/kg PO): 47.9%
